Data on ten compounds can be found in ChEMBL document CHEMBL4004890, “RITA Mimics: Synthesis and Mechanistic Evaluation of Asymmetric Linked Trithiazoles” (2017).

Molecules are shown by their SMILES. Active and inactive are the calls of the source. The rule behind the calls is not given here.

In experiment [1] the test system is K562. Nature of the experiment: Antiproliferative activity against human K562 cells. The experiment is classed as functional.
For experiment [2], the system named is HCT-116. Nature of the experiment: Growth inhibition of human HCT116 cells at 10 uM after 24 hrs by CCK8 assay relative to control. The experiment is classed as functional. (In general: Tetrazolium dyes change colour on reduction, which living cells bring about.)
In experiment [3] the test system is HCT-116. Nature of the experiment: Upregulation of p53 expression in human HCT116 cells at 10 uM at 12 hrs post dose by chemiluminescent immunoblotting. The experiment is classed as functional, cell-based. In general terms: In western blotting, separated proteins are transferred to a membrane and probed.
Experiment [4] concerns HCT-116. Nature of the experiment: Down regulation of c-Myc expression in human HCT116 cells at 1 uM after 12 to 24 hrs by chemiluminescent immunoblotting. The format is functional, cell-based.
In experiment [5] the test system is HCT-116. Nature of the experiment: Induction of apoptosis in human HCT116 cells at 1 uM after 24 hrs by Annexin-V-FITC/7AAD staining based flow cytometry. The experiment is classed as functional, cell-based. A general note: Flow cytometry measures light scatter and fluorescence of single cells or particles in a stream.
The subject of experiment [6] is HCT-116. Nature of the experiment: Down regulation of c-Myc expression in human HCT116 cells at 1 uM after 6 hrs by chemiluminescent immunoblotting. The experiment is classed as functional, cell-based.
The test system of experiment [7] is HCT-116. Nature of the experiment: Down regulation of Mcl-1 expression in human HCT116 cells at 1 to 10 uM after 6 to 24 hrs by chemiluminescent immunoblotting. The experiment is classed as functional, cell-based.
The test system of experiment [8] is HCT-116. Nature of the experiment: Growth inhibition of human HCT116 cells after 24 hrs by CCK8 assay. The experiment is classed as functional. As to conditions: HCT-116, 24 h.
Experiment [9] concerns HCT-116. Nature of the experiment: Antiproliferative activity against human HCT116 cells. The experiment is classed as functional.
Experiment [10] deals with HCT-116. Nature of the experiment: Down regulation of c-Myc expression in human HCT116 cells at 10 uM after 6 to 24 hrs by chemiluminescent immunoblotting. The experiment is classed as functional, cell-based.
For experiment [11], the system named is HCT-116. Nature of the experiment: Induction of apoptosis in human HCT116 cells at 10 uM after 24 hrs by Annexin-V-FITC/7AAD staining based flow cytometry. The format is functional, cell-based.
The test system of experiment [12] is HCT-116. Nature of the experiment: Upregulation of p53 expression in human HCT116 cells at 1 uM at 6 hrs post dose by chemiluminescent immunoblotting. The experiment is classed as functional, cell-based.
Experiment [13] relates to CCRF-CEM. Nature of the experiment: Antiproliferative activity against human CCRF-CEM cells. The format is functional.

With `Cc1nc(Nc2ncc(C(=O)Nc3c(C)cccc3Cl)s2)cc(N2CCN(CCO)CC2)n1` [DASATINIB], the GI50 – broadly, the concentration that inhibits growth by half – in [1] was below 1 nM.

As to `CCOC(=O)c1csc(-c2csc(-c3csc([C@H](N)Cc4ccccc4)n3)n2)n1`, the “growth inhibition (GI)” value in experiment [2] was “inactive”.

In the case of `CC(C)(C)OC(=O)N1Cc2ccccc2C[C@H]1c1nc(-c2nc(-c3nc(C(N)=O)cs3)cs2)cs1`, the “growth inhibition (GI)” value in [2] is “inactive”.

With `CCOC(=O)c1csc(-c2csc(-c3csc([C@@H]4Cc5ccccc5CN4C(=O)OC(C)(C)C)n3)n2)n1`, the “growth inhibition (GI)” value in experiment [2] is “inactive”.

For `OCc1ccc(-c2ccc(-c3ccc(CO)s3)o2)s1`, the result in experiment [3], in experiment [5], in experiment [6], in experiment [7], in experiment [10] and in experiment [11] was Active. Further, the outcome in experiment [12] was Active. Also, the result in experiment [4] was inactive. Further, the GI50 in experiment [8] was determined as 800 nM; in experiment [9] it was 110 nM.

Take `CCOC(=O)c1csc(-c2csc(-c3csc([C@H](Cc4ccccc4)NC(=O)OC(C)(C)C)n3)n2)n1`: the “growth inhibition (GI)” value in [2] was “inactive”.

On to `CC(C)(C)OC(=O)N[C@H](Cc1ccccc1)c1nc(-c2nc(-c3nc(C(N)=O)cs3)cs2)cs1`, for which, in [2], the “growth inhibition (GI)” value is “inactive”.

With `CCOC(=O)c1csc(-c2csc(-c3csc([C@@H](N)Cc4ccccc4)n3)n2)n1`, the “growth inhibition (GI)” value in experiment [2] is “inactive”.

On to `CN[C@@H](C)C(=O)N[C@H](C(=O)N1CCC[C@H]1c1nc(C(=O)c2ccc(F)cc2)cs1)C1CCCCC1` [LCL-161], for which, in experiment [13], the GI50 is 250 nM. This counts as sub-micromolar.

For the compound `CC(C)(C)OC(=O)N[C@@H](Cc1ccccc1)c1nc(-c2nc(-c3nc(C(N)=O)cs3)cs2)cs1`, the “growth inhibition (GI)” value in experiment [2] is “inactive”.
